Measured values: ChEMBL document CHEMBL5728798, “Macrocycles as factor XIA inhibitors” (2021)
pKi: −log10 of the molar value.

Target: Coagulation factor XI (Homo sapiens, UniProt P03951)
Experiment: In Vitro Assays: Factor XIa determinations were made in 50 mM HEPES buffer at pH 7.4 containing 145 mM NaCl, 5 mM KCl, and 0.1% PEG 8000 (polyethylene glycol; JT Baker or Fisher Scientific). Determinations were made using purified human Factor XIa at a final concentration of 25-200 pM (Haematologic Technologies) and the synthetic substrate S-2366 (pyroGlu-Pro-Arg-pNA; CHROMOGENIX® or AnaSpec) at a concentration of 0.0002-0.001 M.

Sequence of Coagulation factor XI (P03951 19-387 limits assumed): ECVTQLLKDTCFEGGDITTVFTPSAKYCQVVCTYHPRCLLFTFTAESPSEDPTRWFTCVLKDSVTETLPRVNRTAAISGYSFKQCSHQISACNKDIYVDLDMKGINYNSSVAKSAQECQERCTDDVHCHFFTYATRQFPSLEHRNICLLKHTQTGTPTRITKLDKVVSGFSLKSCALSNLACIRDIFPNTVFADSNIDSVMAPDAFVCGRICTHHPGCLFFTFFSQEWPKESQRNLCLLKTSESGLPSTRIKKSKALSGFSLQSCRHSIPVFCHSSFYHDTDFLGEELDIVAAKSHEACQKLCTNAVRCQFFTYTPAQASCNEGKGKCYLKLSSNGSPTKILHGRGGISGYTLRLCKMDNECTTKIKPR
Sequence of Coagulation factor XI (P03951 388-625 limits assumed): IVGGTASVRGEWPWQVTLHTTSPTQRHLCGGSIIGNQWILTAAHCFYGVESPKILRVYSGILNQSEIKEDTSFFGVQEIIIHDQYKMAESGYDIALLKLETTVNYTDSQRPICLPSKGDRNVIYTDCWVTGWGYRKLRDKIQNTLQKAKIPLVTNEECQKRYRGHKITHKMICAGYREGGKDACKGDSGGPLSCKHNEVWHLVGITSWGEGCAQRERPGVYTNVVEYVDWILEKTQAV

A pKi of 6.54 was found for COC(=O)Nc1ccc2c(c1)N[C@@H](C(F)F)CCCC[C@H](NC(=O)/C=C/c1cc(Cl)ccc1-n1cnnn1)c1nc-2c[nH]1 in this work.
